Data taken from patent US10828301B2, “2,4-pyrimidinediamine compounds and their uses” (Rigel Pharmaceuticals, Inc, priority 2002, dated 2020).
pIC50: −log10 of the molar value.

Experiments:
[1] = test system: cultured human mast cells (CHMC); test: CHMC low cell density IgE activation: tryptase and LTC4 assays; type: cell-based; details: read-out: CHMC anti-IgE Tryptase
Outline: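 Degranulation measured after 30 min anti-IgE challenge at 37° C of CHMC plated at 1000-1500 cells/well following 1 h preincubation. Readouts: LTC4 by ELISA on donor-specific diluted supernatants, and tryptase activity from a 30 min room-temperature substrate reaction.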

[2] = test system: cultured human mast cells (CHMC); test: CHMC low cell density ionomycin activation: tryptase assay; type: cell-based; details: read-out: CHMC Ionomycin Tryptase
[3] = Homo sapiens, Mast cell, Low Density CHMC, anti-IgE activation, tryptase readout
[4] = Homo sapiens, Mast cell, Low Density CHMC, ionomycin activation, tryptase readout
[5] = Low Density CHMC, anti-IgE activation, tryptase readout
[6] = Low Density CHMC, ionomycin activation, tryptase readout

Row | pIC50 [1, 3] | pIC50 [2, 4] | SMILES | other results
1 | 6.17 | < 5.00 | OCCOc1cccc(Nc2nc(Nc3cccc(O)c3)ncc2F)c1 [Compound R935170, 5-Fluoro-N4-[3-(2-hydroxyethoxy)phenyl]-N2-(3-hydroxyphenyl)-2,4-pyrimidinediamine] | –
2 | < 5.00 | < 5.00 | COc1ccc(-c2ccccc2)cc1Nc1ccnc(Nc2cc(-c3ccccc3)ccc2OC)n1 [Compound R925805, N2,N4-Bis(2-methoxy-5-phenylphenyl)-2,4-pyrimidinediamine] | –
3 | 5.86 | < 5.00 | OBc1cccc(Nc2nc(Nc3ccc4c(c3)OCCO4)ncc2F)c1 [Compound R926756, N2-(3,4-Ethylenedioxyphenyl)-5-fluoro-N4-(3-hydroxyborylphenyl)-2,4-pyrimidinediamine] | –
4 | 5.65 | < 5.00 | CCOC(=O)C=Nc1cccc(Nc2ncc(F)c(Nc3cccc(N=CC(=O)OCC)c3)n2)c1 [Compound R950184, N2,N4-Bis(3-ethoxycarbonylmethyleneaminophenyl)-5-fluoro-2,4-pyrimidinediamine] | –
5 | 6.47 | 5.20 | Fc1cnc(Nc2ccc(-n3cnc(Cl)c3Cl)cc2)nc1Nc1ccc2c(c1)OCCO2 [Compound R926788, N2-[4-(4,5-Dichloro-1H-imidazol-1-yl)phenyl]-N4-(3,4-ethylenedioxyphenyl)-5-fluoro-2,4-pyrimidinediamine] | –
6 | – | – | CCNC(=O)Oc1cccc(Nc2ncc(F)c(Nc3cccc(O)c3)n2)c1 [Compound R926928, N2-[3-[(N-Ethylamino)carbonyloxy]phenyl]-5-fluoro-N4-(3-hydroxyphenyl)-2,4-pyrimidinediamine] | pIC50 ([1]; Homo sapiens, Mast cell): 6.24; pIC50 ([2]; Homo sapiens, Mast cell): < 5.00
7 | 5.01 | < 5.00 | CCOC(=O)c1nc(Nc2cccc(O)c2)nc(Nc2cccc(O)c2)c1N [Compound R925856, 5-Amino-6-ethoxycarbonyl-N2,N4-bis(3-hydroxyphenyl)-2,4-pyrimidinediamine] | –
8 | < 5.00 | < 5.00 | O=[N+]([O-])c1cnc(Nc2ccc3c(c2)OC(F)(F)O3)nc1Nc1ccc2c(c1)OC(F)(F)O2 [Compound R940100, N2,N4-Bis-(2,2-difluoro-1,3-benzodioxol-5-yl)-5-nitro-2,4-pyrimidinediamine] | –
9 | 5.39 | < 5.00 | Cc1cc(CNc2nc(Nc3cccc(O)c3)ncc2F)c(C)o1 [Compound R945151, N4-[(2,5-Dimethyl-3-furyl)methyl]-5-fluoro-N2-(3-hydroxyphenyl)-2,4-pyrimidinediamine] | –
10 | 6.98 | 5.13 | O=C1COc2ccc(Nc3nc(Nc4cccc(O)c4)ncc3F)cc2N1 [Compound R908702, N4-(1,4-Benzoxazine-3-on-6-yl)-5-fluoro-N2-(3-hydroxyphenyl)-2,4-pyrimidinediamine] | –
11 | 5.98 | < 5.00 | CNC(=O)C1Cc2cc(Nc3ncc(F)c(Nc4ccc(OC)nc4OC)n3)ccc2O1 (racemic) [Compound R927038, (±)-N4-(2,6-Dimethoxypyridin-3-yl)-N2-[2,3-dihydro-2-(N-methylamino)carbonylbenzofuran-5-yl]-5-fluoro-2,4-pyrimidinediamine] | –
12 | 5.93 | < 5.00 | OCCOc1cccc(Nc2nc(Nc3ccc4c(c3)OCCO4)ncc2F)c1 [Compound R935176, N2-(3,4-Ethylenedioxyphenyl)-5-fluoro-N4-[3-(2-hydroxyethoxy)phenyl]-2,4-pyrimidinediamine] | –
13 | < 5.00 | < 5.00 | C=CCNc1ncc(Br)c(Nc2cccc(O)c2)n1 [Compound R925822, N2-Allyl-5-bromo-N4-(3-hydroxyphenyl)-2,4-pyrimidinediamine] | –
14 | < 5.00 | < 5.00 | COC(=O)C(CC(C)C)Nc1ncc(C#N)c(NC(CC(C)C)C(=O)OC)n1 (stereo not shown) [Compound R925815, N2,N4-Bis(1-methoxycarbonyl-3-methylbutyl)-5-cyano-2,4-pyrimidinediamine] | –
15 | < 5.00 | < 5.00 | COc1ccc(-c2ccccc2)cc1Nc1ncc(C)c(Nc2cc(-c3ccccc3)ccc2OC)n1 [Compound R935000, N2,N4-Bis(2-methoxy-5-phenylphenyl)-5-methyl-2,4-pyrimidinediamine] | –
16 | 5.96 | < 5.00 | CCOC(=O)c1cc2cccc(Nc3cc(Nc4cccc(O)c4)c(F)cn3)c2[nH]1 [Compound R926814, N2-(2-Ethoxycarbonylindol-7-yl)-5-fluoro-N4-(3-hydroxyphenyl)-2,4-pyridinediamine] | –
17 | 5.22 | < 5.00 | Oc1ccc(-c2cnc(Nc3ccc4c(c3)OCCO4)nc2Nc2ccc3c(c2)OCCO3)cc1 [Compound R925816, N2,N4-Bis(3,4-ethylenedioxyphenyl)-5-(4-hydroxyphenyl)-2,4-pyrimidinediamine] | –
18 | < 5.00 | < 5.00 | Cc1cc(CNc2ncc(F)c(Nc3cccc(O)c3)n2)c(C)o1 [Compound R945162, N2-[(2,5-Dimethyl-3-furyl)methyl]-5-fluoro-N4-(3-hydroxyphenyl)-2,4-pyrimidinediamine] | –

Row | pIC50 [1, 3] | pIC50 [2, 4] | SMILES | other results
19 | < 5.00 | < 5.00 | O=C(O)C1CCC(Nc2nc(Nc3ccc4c(c3)OCCO4)ncc2F)CC1 (stereo not shown) [Compound R925795, N4-(4-Carboxycyclohexyl)-N2-(3,4-ethylenedioxyphenyl)-5-fluoro-2,4-pyrimidinediamine] | –
20 | – | – | Cn1nc(I)c2cc(Nc3ncc(F)c(Nc4ccc(I)c(O)c4I)n3)ccc21 [Compound R935221, N4-(2,4-Diiodo-3-hydroxypheny)-5-fluoro-N2-(3-iodo-1-methyl-indazoline-5-yl)-2,4-pyrimidinediamine] | pIC50 [1, 5]: < 5.00; pIC50 [2, 6]: < 5.00
21 | 5.85 | < 5.00 | COC(=O)c1ccc(Nc2ncc(F)c(Nc3ccc(C(=O)OC)c(OC)c3)n2)cc1OC [Compound R945065, N2,N4-Bis(3-methoxy-4-methoxycarbonylphenyl)-5-fluoro-2,4-pyrimidinediamine] | –
22 | 5.51 | 5.03 | Clc1cc(Nc2ccc3c(c2)OCCO3)nc(Nc2ccc3c(c2)OCCO3)n1 [Compound R926245, N2,N4-Bis(3,4-ethylenedioxyphenyl)-6-chloro-2,4-pyrimidinediamine] | –
23 | < 5.00 | < 5.00 | Oc1ccc(CCNc2ccnc(NCCc3ccc(O)cc3)n2)cc1 [Compound R925790, N2,N4-Bis[2-(4-hydroxyphenyl)ethyl]-2,4-pyrimidinediamine] | –
24 | 6.10 | < 5.00 | Cc1cc(Nc2nc(Nc3cccc(O)c3)ncc2F)cc(Cl)c1O [Compound R940235, N4-(3-Chloro-4-hydroxy-5-methylphenyl)-5-fluoro-N2-(3-hydroxyphenyl)-2,4-pyrimidinediamine] | –
25 | < 5.00 | < 5.00 | CCOC(=O)C(Nc1ncc(C#N)c(NC(C(=O)OCC)C(C)C)n1)C(C)C (stereo not shown) [Compound R925814, N2,N4-Bis(1-ethoxycarbonyl-2-methylpropyl)-5-cyano-2,4-pyrimidinediamine] | –
26 | – | – | COC(=O)c1ccc(CNc2nc(Nc3ccc4c(c3)OCCO4)ncc2C#N)cc1 [Compound R925820, 5-Cyano-N2-(3,4-ethylenedioxyphenyl)-N4-(methoxycarbonylbenzyl)-2,4-pyrimidinediamine] | pIC50 [1, 5]: < 5.00; pIC50 [2, 6]: < 5.00
27 | 6.56 | < 5.00 | Oc1cccc(Nc2ncc(C(F)(F)F)c(Nc3cccc(O)c3)n2)c1 [Compound R925863, N2,N4-Bis(3-hydroxyphenyl)-5-trifluoromethyl-2,4-pyrimidinediamine] | –
28 | 5.17 | < 5.00 | Nc1nc(N(CC(O)c2ccccc2)c2ccc3c(c2)OCCO3)ncc1F (stereo not shown) [Compound R925765, N2-(3,4-Ethylenedioxyphenyl)-5-fluoro-N2-(2-hydroxy-2-phenylethyl)-2,4-pyrimidinediamine] | –
29 | 5.72 | < 5.00 | CC(C)Oc1cccc(Nc2ncc(F)c(Nc3cccc(N)c3)n2)c1 [Compound R950164, N4-(3-Aminophenyl)-5-fluoro-N2-(3-isopropoxyphenyl)-2,4-pyrimidinediamine] | –
30 | < 5.00 | < 5.00 | Fc1cnc(NCc2ccccc2)nc1NCc1ccccc1 [Compound R925772, N2,N4-Dibenzyl-5-fluoro-2,4-pyrimidinediamine] | –
31 | 6.25 | < 5.00 | Oc1cccc(Nc2ncc(F)c(Nc3ccc(OC(F)(F)F)c(Cl)c3)n2)c1 [Compound R920411, N4-(3-Chloro-4-trifluoromethoxyphenyl)-5-fluoro-N2-(3-hydroxyphenyl)-2,4-pyrimidinediamine] | –
32 | 5.90 | < 5.00 | COc1cc(Nc2nc(Nc3cccc(O)c3)ncc2F)cc(OC)c1 [Compound R926802, N4-(3,5-Dimethoxyphenyl)-N2-(3-hydroxyphenyl)-5-fluoro-2,4-pyrimidinediamine] | –
33 | 6.77 | < 5.00 | CC(C)(C)c1cccc(Nc2ncc(F)c(Nc3ccc4c(c3)N=CCO4)n2)c1 [Compound R909246, N4-(1,4-Benzoxazin-6-yl)-N2-(3-tert-butylphenyl)-5-fluoro-2,4-pyrimidinediamine] | –
34 | 6.20 | 5.49 | CCOC(=O)c1cc2cc(Nc3ncc(F)c(Nc4ccc5[nH]c(C(=O)OCC)cc5c4)n3)ccc2[nH]1 [Compound R926616, N2,N4-Bis(2-ethoxycarbonylindol-5-yl)-5-fluoro-2,4-pyrimidinediamine] | –
35 | 6.21 | < 5.00 | Nc1cc(Nc2ncc(F)c(Nc3ccc(F)c(N)c3)n2)ccc1F [Compound R950159, N2,N4-Bis(3-amino-4-fluorophenyl)-5-fluoro-2,4-pyrimidinediamine] | –
